Test results: patent US7745578B2, “Fugetactic proteins, compositions and methods of use” (The General Hospital Corporation, priority 2003, dated 2010)

What was measured:
murine T-cells = assay: Quantitative transmigration assay (ChemoTx), negative gradients of EL4 conditioned media; type: cell-based, C57BL/6 mice; conditions: compared with untreated EL4CM24
Procedure: C57BL/6 mice (4 to 8 weeks old) (Jackson Laboratories; Bar Harbor Me.) were euthanized, and dissection of superficial cervical, axillary, brachial and inguinal lymph nodes was performed under sterile conditions. Dissected lymph nodes were then physically disaggregated and a cell suspension generated. The cell suspension was then enriched for T cells by depletion of non-T cells using MACS Pan T cell isolation kit for mouse leukocytes (Miltenyi Biotec; Auburn, Calif.).
Quantitative transmigration assays were carried out as described previously. In brief, ChemoTx chemotaxis 30 μl well plates with 3 μm pore size filters (Neuro Probe; Gaithersburg, Md.) were used. 20,000 murine T-cells were loaded in the upper chamber of the ChemoTx system and subjected to positive, negative and uniform gradients of EL4CM24 in a standard checkerboard analysis of cell migration. The peak concentrations used in each gradient were 1 in 2, 1 in 10, and 1 in 100 dilutions of EL4CM24 with 10.5 media; Isocove's supplemented with 0.5% fetal calf serum, 50 units/ml Penicillin, 50 μg/ml Streptomycin and 292 μg/ml L-Glutamine (Mediatech; Herndon, Va.). […] The chemotactic index was calculated as the quotient of the average number of cells migrating in response to EL4CM24 and the average number of cells migrating in response to media alone. […]

[1] = tested on: T-cell infiltration into the peritoneal cavity; assay: Intraperitoneal injection of conditioned media and analysis of lymphocyte infiltration; design: species or system BALB/c-DO11 mice; conditions: after immunoprecipitation of HSP90α from EL-4 CM with a monoclonal antibody; immune challenge in vivo
Procedure: BALB/c-DO11 mice (kindly provided by Dr. Iacomini, Massachusetts General Hospital) were primed by subcutaneous injection with 100 μl of ovalbumin (ICN Biomedicals; Costa Mesa, Calif.) dissolved in Freund's complete adjuvant (Pierce Biotechnology; Rockford, Ill.) at a concentration 1 mg/ml. Three days later, mice were injected intraperitoneally with 250 μl of ovalbumin dissolved in sterile water at concentration a 0.4 mg/ml. 24 hours later, experimental mice were injected intraperitoneally with 250 μl of EL4CM24, while control mice were injected intraperitoneally with 250 μl of HSF media or protease treated EL4CM24. 24 hours later, cells were extracted from the intraperitoneal space by lavage with 5 ml of cold phosphate buffered saline (Mediatech; Herndon, Va.) and aspiration with a 10 ml syringe and 21-gauge needle. Peritoneal lavage cells were counted on a hemocytometer and then immuno-stained for anti-CD3, CD4, CD8 and TCR-kj-OVA lymphocyte expression (BD BioSciences; San Jose, Calif.) and anti-CD4 (Caltag Laboratories; Burlingame, Calif.) with antibodies labelled with Percp and PE (phytoerythrin) known fluorophor labels. T-cells expressing CD3+, CD3+ CD4+, CD3+ CD8+, CD3+ TCR-kj-OVA were then determined by FACS analysis.

EL4 cells = assay: Viability of EL4 cells after inhibitor treatment; type: cell-based; conditions: EL4 cells in HSF, Brefeldin A 10 μg/ml for 24 hours
Procedure: EL4CM24 was heat inactivated at 42° C. for 1 hour prior to being used in the transmigration assays described above. […] EL4CM24 was incubated with hydrated proteinase K agarose (Sigma-Aldrich; St. Louis, Mo.) at 1 mg/ml for 1 hour at 37° C. in a 5% CO2 humidified incubator then filtered through a 0.2 μm pore-size filter prior to being used in the transmigration and intraperitoneal assays. Murine T-cells were incubated with pertussis toxin (Sigma-Aldrich; St. Louis, Mo.) at 100 ng/ml for 1 hour at 37° C. in a 5% CO2 humidified incubator, prior to being used in the transmigration assays. EL4CM24 was incubated with radiciol (Sigma-Aldrich; St. Louis, Mo.) for two hours at room temperature at concentrations 0.1 μg/ml and 7.3 μg/ml. The transmigration was then carried out using the EL4CM24 mixture. As a control, transmigration assays were also carried out using gradients of HSF media supplemented with 7.3 μg/ml of radicol or using EL4CM24-radicicol mixtures from which excess radiciol had been removed using 5 kDa size exclusion Centricon Ultrafree filters (Millipore; Billerica, Mass.). EL4 cells in HSF were also exposed to Geldanamycin at 1.2 μM or 200 nM prior to use of the CM in transmigration assays. EL4 cells in HSF were also exposed to Brefeldin A at 10 μg/ml overnight for a full 24 hours prior to use of the EL4CM24 in transmigration assays. […]

| Compound | level of migration of lymphocytes (murine T-cells) | also measured |
| --- | --- | --- |
| pertussis toxin | significantly reduced |  |
| HSP90α: heat shock protein in EL-4 conditioned medium, removed by immunoprecipitation with a monoclonal antibody |  | reduction in the fugetactic effect of the CM on T-cells infiltrating the peritoneal cavity [1]: four-fold reduction |
| C[C@@H]1C[C@H]2O[C@@H]2/C=C\C=C\C(=O)Cc2c(Cl)c(O)cc(O)c2C(=O)O1 [radicicol] | not significantly reduced |  |
| C[C@H]1CCC/C=C/[C@@H]2C[C@H](O)C[C@H]2[C@H](O)/C=C/C(=O)O1 [Brefeldin A] |  | viability (EL4 cells): Greater than 65% |
